The values that follow come from patent publication US20240238212A1, “LIPID COMPOUNDS AND LIPID NANOPARTICLE COMPOSITIONS” (SUZHOU ABOGEN BIOSCIENCES CO., LTD., priority 2022, published 2024).

Series [1] in a line: Lipid nanoparticle size and polydispersity by dynamic light scattering. The format is physicochemical. Particulars: LNP comprising the compound, hEPO mRNA; for Size (nm): cationic lipid/DSPC/cholesterol/PEG-lipid 50:10:38.5:1.5. Here is the method: (§1) Briefly, a cationic lipid provided herein, DSPC, cholesterol, and PEG-lipid were solubilized in ethanol at a molar ratio of 50:10:38.5:1.5, and mRNA were diluted in 10 to 50 mM citrate buffer, pH=4. The LNPs were prepared at a total lipid to mRNA weight ratio of approximately 10:1 to 30:1 by mixing the ethanolic lipid solution with the aqueous mRNA solution at a volume ratio of 1:3 using a microfluidic apparatus, total flow rate ranging from 9-30 mL/min. Ethanol were thereby removed and replaced by DPBS using dialysis. Finally, the lipid nanoparticles were filtered through a 0.2 μm sterile filter.
(§2) Lipid nanoparticle size were determined by dynamic light scattering using a Malvern Zetasizer Nano ZS (Malvern UK) using a 173° backscatter detection mode. The encapsulation efficiency of lipid nanoparticles were determined using a Quant-it Ribogreen RNA quantification assay kit (Thermo Fisher Scientific, UK) according to the manufacturer's instructions.

Series [2] is described as follows: Lipid clearance study: lipid remaining in liver tissue by LC-MS/MS. The note with it: mouse liver; for % Dose Remaining in Liver Tissue, 6 h: 6 h after 0.5 mg/kg i.v. bolus dose mRNA; for % Dose Remaining in Liver Tissue, 24 h: 24 h after 0.5 mg/kg i.v. bolus dose mRNA; for % Dose Remaining in Liver Tissue, 48 h: 48 h after 0.5 mg/kg i.v. bolus dose mRNA.
Procedure: LNPs were injected into mice via the tail vein (ICR female, IV, 0.5 mg mRNA/kg), then mice were anesthetized under carbon dioxide at different time (e.g., 6 h, 24 h, and 48 h) after administration and sacrificed via cardiac puncture. Liver tissue were collected immediately, and then washed by ice-cold saline. Liver samples were weighed and homogenized in ice water bath by adding pre-chilled 20% methanol-water (v/v) at 2˜8° C. with the ratio of 1:5 (w/v). The homogenized tissue samples were stored in −90˜−60° C. freezer prior to analysis.
All liver tissue homogenate samples were allowed to thaw at room temperature. An aliquot of 50 μL of sample was added with 50 μL MgCl2 (2M), then added with ACN which contains of Verapamil, 5 ng mL-1 and Glibenclamide, 50 ng mL-1 and Diclofenac, 200 ng mL^−1 and Tolbutamide, 200 ng mL^−1 for protein precipitation, then centrifuged at 13000 rpm for 8 min. Then 100 μL of supernatant was added with 100 μL water, then vortexed well. An aliquot of 5 μL of the mixture was injected into the LC-MS/MS system.
Series [3] relates to human erythropoietin (hEPO) mRNA expression. Kind of series: Animal Study 1: hEPO mRNA LNPs i.v. in mice, serum EPO by ELISA. The format is in vivo. The note with it: female ICR mice, 0.5 mg/kg tail vein injection, blood e.g. 6 hours post administration; relative to MC3 LNP. Here is the method:
Lipid nanoparticles comprising compounds in the following table encapsulating human erythropoietin (hEPO) mRNA were systemically administered to 6-8 week old female ICR mice (Xipuer-Bikai, Shanghai) at 0.5 mg/kg dose by tail vein injection and mice blood were sampled at specific time points (e.g., 6 hours) post administration. In addition to the aforementioned tested groups, lipid nanoparticles comprising dilinoleylmethyl-4-dimethylaminobutyrate (DLin-MC3-DMA, usually abbreviated to MC3) encapsulating hEPO mRNA were similarly administered at the same dose to age and gender comparative groups of mice as a positive control.
Mice were euthanized by CO2 overdoses after the last sampling time point. Serum were separated from total blood by centrifugation at 5000 g for 10 minutes at 4 T, snap-frozen and stored at −80 T for analysis. ELISA assay were carried out using a commercial kit (DEP00, R&D systems) according to manufacturer's instructions.
Characteristics of tested lipid nanoparticles, including EPO expression levels over MC3 measured from the tested group are listed in the table below.

The nature of series [4]: Encapsulation efficiency of lipid nanoparticles (Quant-it Ribogreen RNA assay). Format: physicochemical. Particulars: LNP comprising the compound, hEPO mRNA. Here is the method:
as §1, §2

Series [5] can be described thus: Apparent pKa of LNP formulations (TNS fluorescence assay). The format is physicochemical. The note with it: LNP formulation, TNS assay (Table 2). Here is the method: As reported in literature, the apparent pKa of LNP formulations correlates with the delivery efficiency of LNPs for nucleic acids in vivo. The apparent pKa of each formulation was determined using an assay based on fluorescence of 2-(p-toluidino)-6-napthalene sulfonic acid (TNS). LNP formulations comprising of cationic lipid/DSPC/cholesterol/DMG-PEG (50/10/38.5/1.5 mol %) in PBS were prepared as described above. TNS was prepared as a 300 μM stock solution in distilled water. LNP formulations were diluted to 0.1 mg/mL total lipid in 3 mL of buffered solutions containing 50 mM sodium citrate, 50 mM sodium phosphate, 50 mM sodium borate, and 30 mM sodium chloride where the pH ranged from 3 to 9. An aliquot of the TNS solution was added to give a final concentration of […] and following vortex mixing fluorescence intensity was measured at room temperature in a Molecular Devices Spectramax iD3 spectrometer using excitation and mission wavelengths of 325 nm and 435 nm. A sigmoidal best fit analysis was applied to the fluorescence data and the pKa value was measured as the pH giving rise to half-maximal fluorescent intensity.

`CCCCCCCCC(CCCCCC)CNC(=O)CCCCCN(CCO)CCCCC(COC(=O)CCCCCCC)COC(=O)CCCCCCC` (stereo not shown) [Compound 11]: in series [1], the Polydispersity stood at 0.082 and the “Size (nm)” value is 59.17 nm. In addition, in series [2], the “% Dose Remaining in Liver Tissue, 6 h” value was determined as 3.1%; the “% Dose Remaining in Liver Tissue, 24 h” value was determined as 0.537%; the “% Dose Remaining in Liver Tissue, 48 h” value turned out to be 0.139%. Besides, the “EPO expression over MC3” value in series [3] is recorded as “D (<0.1)”. In series [4], this compound yielded an Encapsulation efficiency of 85.63%.
For the compound `CCCCCCCC(=O)OCC(CCCCN(CCCCC(COC(=O)CCCCCCC)COC(=O)CCCCCCC)CCOCCO)COC(=O)CCCCCCC` [Compound 5], in series [1], the Polydispersity was 0.073 and the “Size (nm)” value turned out to be 82.87 nm. Also, in series [2], the “% Dose Remaining in Liver Tissue, 6 h” value is on record as 2.646%; the “% Dose Remaining in Liver Tissue, 24 h” value is on record as 0.098%; the “% Dose Remaining in Liver Tissue, 48 h” value was 0%. Besides, the “EPO expression over MC3” value in series [3] was “A (≥2)”. In addition, the Encapsulation efficiency in series [4] is 89.49%.
Regarding `CCCCCCCCOC(CCCCCN(CCCCCO)CCCCCC(OCCCCCCCC)OCCCCCCCC)OCCCCCCCC` [Compound 19], the “Apparent pKa” value in series [5] worked out at 6.216. For the same compound, in series [1], the Polydispersity amounted to 0.07 and the “Size (nm)” value is given as 64.48 nm. The “EPO expression over MC3” value in series [3] was “B (≥1 and <2)”. This compound returned an Encapsulation efficiency in series [4] of 95.52%.
In the case of `CCCCCCCC(=O)OCC(COC(=O)CCCCCCC)OCCCN(CCCOC(COC(=O)CCCCCCC)COC(=O)CCCCCCC)CCN(CCO)C1CCCCC1` [Compound 14], the “Apparent pKa” value in series [5] is given as 6.457. In series [1], the Polydispersity was determined as 0.049 and the “Size (nm)” value is 91.43 nm. For the same compound, the “EPO expression over MC3” value in series [3] is on record as “A (≥2)”. In series [4], this compound showed an Encapsulation efficiency of 82.84%.
In the case of `CCCCCCCC(=O)OCC(CCCCN(CCCCCNc1c(N(C)C)c(=O)c1=O)CCCCC(COC(=O)CCCCCCC)COC(=O)CCCCCCC)COC(=O)CCCCCCC` [Compound 28], in series [5], the “Apparent pKa” value stood at 6.593. In series [1], the Polydispersity is listed as 0.077 and the “Size (nm)” value is on record as 68.48 nm. Also, the “EPO expression over MC3” value in series [3] is “C (≥0.1 and <1)”. Moreover, in series [4], the Encapsulation efficiency is on record as 89.90%.
Turning to `CCCCCCCC(=O)OCC(CC)(COC(=O)CCCCCCC)COC(=O)CCCCCN(CCO)CCCCCC(=O)OCC(CC)(COC(=O)CCCCCCC)COC(=O)CCCCCCC` [Compound 82], the “Apparent pKa” value in series [5] was determined as 6.342. In series [1], the Polydispersity amounted to 0.010 and the “Size (nm)” value came out at 69.37 nm. In addition, in series [3], the “EPO expression over MC3” value is “A (≥2)”. Besides, in series [4], the Encapsulation efficiency turned out to be 95.75%.
Take `CCCCCCCC/C=C\CCCCCCCC(=O)OCCCCCCN(CCCCC(COC(=O)CCCCCCC)COC(=O)CCCCCCC)C1CC(O)C1` (stereo not shown) [Compound 39]: in series [5], the “Apparent pKa” value is on record as 6.801. In series [1], the Polydispersity is recorded as 0.002 and the “Size (nm)” value is recorded as 84.01 nm. Moreover, the “EPO expression over MC3” value in series [3] was “C (≥0.1 and <1)”. Besides, the Encapsulation efficiency in series [4] is reported as 89.27%.
`CCCCCCCCCCCCC(=O)OCC(COC(=O)CCCCCCCCCCCC)COC(=O)CCCCCN(CCO)CCCCCC(=O)OCC(COC(=O)CCCCCCCCCCCC)COC(=O)CCCCCCCCCCCC` [Compound 74]: in series [5], the “Apparent pKa” value worked out at 6.283. Also, in series [1], the Polydispersity is recorded as 0.012 and the “Size (nm)” value was determined as 66.23 nm. The “EPO expression over MC3” value in series [3] is “C (≥0.1 and <1)”. Further, in series [4], the Encapsulation efficiency is on record as 94.82%.
As for `CCCCCCCC(=O)OCC(COC(=O)CCCCCCC)OCCCN(CCCCCO)CCCOC(COC(=O)CCCCCCC)COC(=O)CCCCCCC` [Compound 25], the “Apparent pKa” value in series [5] is reported as 6.418. Also, in series [1], the Polydispersity turned out to be 0.085 and the “Size (nm)” value was 98.05 nm. Besides, the “EPO expression over MC3” value in series [3] is “B (≥1 and <2)”. In series [4], this compound came in with an Encapsulation efficiency of 82.87%.
With `CCCCCCCC(=O)OCC(COC(=O)CCCCCCC)COC(=O)CCCCCN(CCCCCO)CCCCCC(=O)OCC(COC(=O)CCCCCCC)COC(=O)CCCCCCC` [Compound 68], the “Apparent pKa” value in series [5] was determined as 6.582. Moreover, in series [1], the Polydispersity was 0.010 and the “Size (nm)” value is reported as 100.16 nm. Besides, in series [3], the “EPO expression over MC3” value is given as “A (≥2)”. The same compound came in with an Encapsulation efficiency in series [4] of 94.91%.
In the same order, the values of `CCCCCCCC(=O)OCC(CCCCN(CCCCC(COC(=O)CCCCCCC)COC(=O)CCCCCCC)CCCNc1c(N(C)CCC)c(=O)c1=O)COC(=O)CCCCCCC` [Compound 35] are 6.138, 0.05652, 71.02 nm, “A (≥2)” and 89.19%.
In the same order, the values of `CCCCC/C=C\C/C=C\CCCCCCCC(=O)OCCCCCCN(CCCCC(COC(=O)CCCCCCC)COC(=O)CCCCCCC)C1CCC(O)CC1` (stereo not shown) [Compound 37] are 6.69, 0.005279, 93.13 nm, “A (≥2)” and 88.34%.
In the same order, the values of `CCCCCCCC(=O)OCC(C)(COC(=O)CCCCCCC)COC(=O)CCCCCN(CCO)CCCCCC(=O)OCC(C)(COC(=O)CCCCCCC)COC(=O)CCCCCCC` [Compound 64] are 6.575, 0.094, 83.57 nm, “A (≥2)” and 94.94%.
With `CCCCCCCC(=O)OCC(COC(=O)CCCCCCC)COC(=O)CCCCCN(CCCCCCCO)CCCCCC(=O)OCC(COC(=O)CCCCCCC)COC(=O)CCCCCCC` [Compound 70], in series [5], the “Apparent pKa” value is on record as 6.171. Also, in series [1], the Polydispersity was found to be 0.037 and the “Size (nm)” value is given as 67.7 nm. Moreover, the “EPO expression over MC3” value in series [3] was “B (≥1 and <2)”. In series [4], this compound gave an Encapsulation efficiency of 95.70%.
In the case of `CCCCCCCC(=O)OCC(CCCCN(CCCCC(COC(=O)CCCCCCC)COC(=O)CCCCCCC)C1CC(CO)C1)COC(=O)CCCCCCC` (stereo not shown) [Compound 54], the “Apparent pKa” value in series [5] turned out to be 6.679. In series [1], the Polydispersity amounted to 0.109 and the “Size (nm)” value is reported as 63.7 nm. For the same compound, in series [3], the “EPO expression over MC3” value is “B (≥1 and <2)”. For the same compound, in series [4], the Encapsulation efficiency turned out to be 94.90%.
Regarding `CCCCCCCCC(=O)OCC(COC(=O)CCCCCCCC)COC(=O)CCCCCN(CCO)CCCCCC(=O)OCC(COC(=O)CCCCCCCC)COC(=O)CCCCCCCC` [Compound 75], the “Apparent pKa” value in series [5] is 6.703. For the same compound, in series [1], the Polydispersity was 0.074 and the “Size (nm)” value is listed as 66.83 nm. Moreover, in series [3], the “EPO expression over MC3” value was “A (≥2)”. In series [4], this compound displayed an Encapsulation efficiency of 93.47%.
The matching figures for `CCCCCCCCC(CCCCCC)COC(=O)CCCCCN(CCO)CCCCCC(=O)OCC(C)(COC(=O)CCCCCCC)COC(=O)CCCCCCC` (stereo not shown) [Compound 83]: 6.547, 0.051, 67.54 nm, “A (≥2)” and 94.79%.
Consider `CCCCCCCC(=O)OCC(COC(=O)CCCCCCC)COC(=O)CCCCCN(CCCCCCO)CCCCCC(=O)OCC(COC(=O)CCCCCCC)COC(=O)CCCCCCC` [Compound 69], for which, in series [5], the “Apparent pKa” value came to 6.271. Further, in series [1], the Polydispersity was 0.012 and the “Size (nm)” value came out at 106.71 nm. Also, the “EPO expression over MC3” value in series [3] was “B (≥1 and <2)”. In series [4], the Encapsulation efficiency came to 94.81%.
